From patent publication US6451814B1, “Heterocyclic β-3 adrenergic receptor agonists” (Wyeth, priority 2000, dated 2002)
Counter-ions that a name gives are not always drawn.

system: not given; assay: not given; conditions: not given

SMILES	melting point [°C]
CNC(=O)N1CCC(Nc2ccc(CCNC[C@H](O)COc3ccc(O)cc3)cc2)CC1 (as salt: salt) [Example 9, 4-(4-{2-[(2S)-2-Hydroxy-3-(4-hydroxy-phenoxy)-propylamino]-ethyl}-phenylamino)-piperidine-1-carboxylic Acid Methylamide]	72 to 77
CCCCCCCCNC(=O)N1CCC(Nc2ccc(CCNC[C@H](O)COc3ccc(F)cc3)cc2)CC1 [Example 3, 4-(4-{2-[(2S)-3-(4-Fluoro-phenoxy)-2-hydroxy-propylamino]-ethyl}-phenylamino)-piperidine-1-carboxylic Acid Octylamide]	58 to 64
Oc1ccc(OC[C@@H](O)CNCCc2ccc(NC3CCN(c4nc(-c5ccccc5)cs4)CC3)cc2)cc1 (as salt: hydrochloride) [Example 117, 4-[(2S)-2-Hydroxy-3-(2-{4-[1l-(4-phenyl-thiazol-2-yl)-piperidin-4-ylamino]-phenyl}-ethylamino)-propoxy]-phenol]	80 to 82
Cc1ccc(S(=O)(=O)N2CCC(Nc3ccc(CCNC[C@H](O)COc4ccc(O)cc4)cc3)CC2)cc1 (as salt: salt) [Example 112, 4-[(2S)-2-Hydroxy-3-(2-{4-[1-(toluene-4-sulfonyl)-piperidin-4-ylamino]-phenyl}-ethylamino)-propoxy]-phenol]	89 to 92
CCCCCCCCNC(=O)N1CCC(Nc2ccc(CCNC[C@H](O)CON=C3CCCc4c(O)cccc43)cc2)CC1 [Example 64, 4-(4-{2-[(2S)-2-Hydroxy-3-(5-hydroxy-3,4-dihydro-2H-naphthalen-1-ylideneaminooxy)-propylamino]-ethyl}-phenylamino)-piperidine-1-carboxylic Acid Octylamide]	85 to 87
CCN(CC)C(=O)N1CCC(Nc2ccc(CCNC[C@H](O)COc3ccc(O)cc3)cc2)CC1 [Example 14, 4-(4-{2-[(2S)-2-Hydroxy-3-(4-hydroxy-phenoxy)-propylamino]-ethyl}-phenylamino)-piperidine-1-carboxylic Acid Diethylamide]	61 to 65
CCCCCCNC(=O)Nc1ccc(S(=O)(=O)N2CCC(Nc3ccc(CCNC[C@H](O)COc4ccc(O)cc4)cc3)CC2)cc1 (as salt: hydrochloride) [Example 108, 1-Hexyl-3-{4-[4-(4-{2-[(2S)-2-hydroxy-3-(4-hydroxy-phenoxy)-propylamino]-ethyl}-phenylamino)-piperidine-1-sulfonyl]-phenyl}-urea]	165 to 168
O=C(c1cc2cc(Br)ccc2[nH]1)N1CCC(Nc2ccc(CCNC[C@H](O)COc3ccc(O)cc3)cc2)CC1 (as salt: salt) [Example 96, (5-Bromo-1H-indol-2-yl)-[4-(4-{2-[(2S)-2-hydroxy-3-(4-hydroxy-phenoxy)-propylamino]-ethyl}-phenylamino)-piperidin-1-yl]-methanone]	114 to 116
CS(=O)(=O)Nc1cc([C@@H](O)CNCCc2ccc(NC3CCN(C(=O)c4ccc(C(=O)O)cc4)CC3)cc2)ccc1O (as salt: salt) [Example 105, 4-[4-(4-{2-[(2R)-2-Hydroxy-2-(4-hydroxy-3-methanesulfonylamino-phenyl)-ethylamino]-ethyl}-phenylamino)-piperidine-1-carbonyl]-benzoic Acid]	> 200
CCCCCCNC(=O)Nc1ccc(C(=O)N2CCC(Nc3ccc(CCNC[C@H](O)COc4ccc(O)cc4)cc3)CC2)cc1 [Example 93, 1-Hexyl-3-{4-[4-(4-{2-[(2S)-2-hydroxy-3-(4-hydroxy-phenoxy)-propylamino]-ethyl}-phenylamino)-piperidine-1-carbonyl]-phenyl}-urea]	108 to 111
CS(=O)(=O)Nc1cc([C@@H](O)CNCCc2ccc(NC3CCN(c4nc(-c5ccccc5)cs4)CC3)cc2)ccc1O (as salt: salt) [Example 118, (R)-N-{2-Hydroxy-5-[1-hydroxy-2-(2-{4-[1-(4-phenyl-thiazol-2-yl)-piperidin-4-ylamino]-phenyl}-ethylamino)-ethyl]-phenyl}-methanesulfonamide]	142 to 145
CCCCCCCCNC(=O)N1CCC(Nc2ccc(CCNC[C@H](O)COc3ccc(O)c(NS(C)(=O)=O)c3)cc2)CC1 (as salt: salt) [Example 66, 4-(4-{2-[(2S)-2-Hydroxy-3-(4-hydroxy-3-methanesulfonylamino-phenoxy)-propylamino]-ethyl}-phenylamino)-piperidine-1-carboxylic Acidoctylamide]	115 to 117
Cc1ccsc1C(=O)N1CCC(Nc2ccc(CCNC[C@H](O)COc3cccc4[nH]c(=O)[nH]c34)cc2)CC1 (as salt: salt) [Example 101, 4-[(2S)-2-Hydroxy-3-(2-{4-[1-(3-methyl-thiophene-2-carbonyl)-piperidin-4-ylamino]-phenyl}-ethylamino)-propoxy]-1,3-dihydro-benzoimidazol-2-one]	128 to 130
CCCCCCCCNC(=O)N1CCC(S(=O)(=O)c2ccc(CCNC[C@H](O)COc3ccc4c(c3)OCO4)cc2)CC1 [Example 49, 4-(4-{2-[(2S)-3-(Benzo[1,3]dioxol-5-yloxy)-2-hydroxy-propylamino]-ethyl}-benzenesulfonyl)-piperidine-1-carboxylic Acid Octylamide]	84 to 86
COc1cccc(CCNC(=O)N2CCC(Nc3ccc(CCNC[C@H](O)COc4ccc(O)cc4)cc3)CC2)c1 (as salt: salt) [Example 6, 4-(4-{2-[(2S)-2-Hydroxy-3-(4-hydroxy-phenoxy)-propylamino]-ethyl}-phenylamino)-piperidine-1-carboxylic Acid [2-(3-methoxy-phenyl)-ethyl]-amide]	103 to 108
CCCCCCCCNC(=O)N1CCC(Nc2ccc(CCNC[C@H](O)c3cccc(Cl)c3)cc2)CC1 (as salt: salt) [Example 36, 4-(4-{2-[(2R)-2-(3-Chloro-phenyl)-2-hydroxy-ethylamino]-ethyl}-phenylamino)-piperidine-1-carboxylic Acid Octylamide]	168 to 171
O=C(NCc1ccc(Cl)c(Cl)c1)N1CCC(Nc2ccc(CCNC[C@H](O)COc3ccc(O)cc3)cc2)CC1 (as salt: ammonium) [Example 21, 4-(4-{2-[(2S)-2-Hydroxy-3-(4-hydroxy-phenoxy)-propylamino]-ethyl}-phenylamino)-piperidine-1-carboxylic Acid 3,4-dichloro-benzylamide]	94 to 97
CCCCCCCCNC(=O)N1CCC(Nc2ccc(CCNC[C@H](O)COc3cccc(NC(C)=O)c3)cc2)CC1 [Example 63, 4-(4-{2-[(2S)-3-(3-Acetylamino-phenoxy)-2-hydroxy-propylamino]-ethyl}-phenylamino)-piperidine-1-carboxylic Acid Octylamide]	73 to 74
CCCCCCCCNC(=O)N1CCC(Nc2ccc(CCNC[C@H](O)COc3ccc(N)nc3)cc2)CC1 (as salt: salt) [Example 5, 4-(4-{2-[(2S)-3-(6-Amino-pyridin-3-yloxy)-2-hydroxy-propylamino]-ethyl}-phenylamino)-piperidine-1-carboxylic Acid Octylamide]	134 to 138
C=CCc1ccccc1OC[C@@H](O)CNCCc1ccc(NC2CCN(C(=O)NCCCCCCCC)CC2)cc1 (as salt: salt) [Example 4, 4-(4-{2-[(2S)-3-(2-Allyl-phenoxy)-2-hydroxy-propylamino]-ethyl}-phenylamino)-piperidine-1-carboxylic Acid Octylamide]	73 to 80
CCOC(=O)C1CCCN(C(=O)N2CCC(Nc3ccc(CCNC[C@H](O)c4ccc(O)c(NS(C)(=O)=O)c4)cc3)CC2)C1 (stereo partly drawn) (as salt: salt) [Example 78, 1-[[4-[[4-[2-[[(2R)-2-Hydroxy-2-[4-hydroxy-3-[(methylsulfonyl)amino]phenyl]ethyl]amino]ethyl]phenyl]amino]-1-piperidinyl]carbonyl]-3-piperidine Carboxylic Acid, Ethyl Ester]	106 to 108
COc1c(C(=O)N2CCC(Nc3ccc(CCNC[C@H](O)COc4cccc(NC(C)=O)c4)cc3)CC2)sc2ccccc12 (as salt: salt) [Example 98, N-{3-[(2S)-2-Hydroxy-3-(2-{4-[1-(3-methoxy-benzo[b]thiophene-2-carbonyl)-piperidin-4-ylamino]-phenyl}-ethylamino)-propoxy]-phenyl}-acetamide]	96 to 98
CCCCCCCCNC(=O)N1CCC(Oc2ccc(CCNC[C@H](O)COc3ccc(O)cc3)cc2)CC1 (as salt: salt) [Example 54, 4-[4-(2-{[(2S)-2-Hydroxy-3-(4-hydroxyphenoxy)propyl]amino}ethyl)phenoxy]-N-octyl-1-piperidinecarboxamide]	153 to 155
O=C(O)COc1ccc(NC(=O)N2CCC(Nc3ccc(CCNC[C@H](O)COc4ccc(O)cc4)cc3)CC2)cc1 (as salt: salt) [Example 58, (4-{[4-(4-{2-[(2S)-2-Hydroxy-3-(4-hydroxy-phenoxy)-propylamino]-ethyl}-phenylamino)-piperidine-1-carbonyl]-amino}-phenoxy)-acetic Acid]	175
CC(C)NC(=O)N1CCC(Nc2ccc(CCNC[C@H](O)COc3ccc(O)cc3)cc2)CC1 (as salt: salt) [Example 11]	89 to 96
O=C(NCc1ccc(F)cc1)N1CCC(Oc2ccc(CCNC[C@H](O)COc3ccc(O)cc3)cc2)CC1 (as salt: salt) [Example 56, 4-(4-{2-[(2S)2-Hydroxy-3-(4-hydroxy-phenoxy)-propylamino]-ethyl}-phenoxy)-piperidine-1-carboxylic Acid 4-fluoro-benzylamide]	160 to 162

molecular target: T1, human β3-adrenergic receptor (Homo sapiens, UniProt P13945); assay: cAMP response (SPA kit) in CHO cells transfected with human β3 adrenergic receptor; assay type: cell-based; conditions: CHO cells expressing human β3-AR; 10^-9 M to 10^-5 M; 30 min at 37° C.; cAMP by SPA; read-out: EC50(β3)
T1 construct: Full length β3 AR clones (402 amino acids) containing the last 6 amino acids of hβ3—AR are prepared; expressed in transfected cells; host or cells: CHO cells
T1 sequence (P13945 whole entry): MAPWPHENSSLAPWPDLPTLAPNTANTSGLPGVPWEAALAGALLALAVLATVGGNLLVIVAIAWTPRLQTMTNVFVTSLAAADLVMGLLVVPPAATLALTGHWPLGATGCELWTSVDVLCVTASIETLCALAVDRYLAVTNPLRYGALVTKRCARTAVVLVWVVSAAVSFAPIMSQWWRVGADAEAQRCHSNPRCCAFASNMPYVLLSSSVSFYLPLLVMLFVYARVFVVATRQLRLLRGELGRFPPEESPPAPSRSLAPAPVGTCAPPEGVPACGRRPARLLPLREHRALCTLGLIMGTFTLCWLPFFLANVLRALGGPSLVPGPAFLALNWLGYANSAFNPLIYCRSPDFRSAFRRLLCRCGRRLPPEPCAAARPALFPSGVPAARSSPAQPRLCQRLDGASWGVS

SMILES	EC50 [nM]
CCCCCCNC(=O)Nc1ccc(S(=O)(=O)N2CCC(Nc3ccc(CCNC[C@H](O)COc4ccc(O)cc4)cc3)CC2)cc1 [Example 108, 1-Hexyl-3-{4-[4-(4-{2-[(2S)-2-hydroxy-3-(4-hydroxy-phenoxy)-propylamino]-ethyl}-phenylamino)-piperidine-1-sulfonyl]-phenyl}-urea]	7

same assay, conditions: maximal response of compound compared to maximal response of isoproterenol at 10^-5 M; CHO cells, human β3-AR

SMILES	IA(β3)
CCCCCCNC(=O)Nc1ccc(S(=O)(=O)N2CCC(Nc3ccc(CCNC[C@H](O)COc4ccc(O)cc4)cc3)CC2)cc1 [Example 108, 1-Hexyl-3-{4-[4-(4-{2-[(2S)-2-hydroxy-3-(4-hydroxy-phenoxy)-propylamino]-ethyl}-phenylamino)-piperidine-1-sulfonyl]-phenyl}-urea]	1.08
